Assay results: patent publication US20240150335A1, “FUSED RING DERIVATIVES CONTAINING 1,4-OXAZEPANE” (MEDSHINE DISCOVERY INC., priority 2021, published 2024)

Columns and labels:
[1] = Mouse tissue (bone marrow) distribution; format: in vivo; details: CD-1 mice
Experimental: Experimental Example 5: Evaluation of Mouse Tissue (Bone Marrow) Distribution of the Compound of the Present Disclosure
Experimental purpose: To test the distribution of the compound of the present disclosure in the bone marrow and plasma of CD-1 mice
Experimental materials: CD-1 mice (male, 20 to 40 g, 4 to 6 weeks old, Beijing Vital River)
The content of the compound in the bone marrow and plasma of mice after oral administration was tested according to the standard protocol. In the experiment, the candidate compound was formulated into a clear solution. The vehicle was 5:95 DMSO and 10% hydroxypropyl β-cyclodextrin aqueous solution. A dose of 5 mg/kg was given to mice as a single oral administration. The whole blood samples and bone marrow samples were collected at 0.25, 0.5, 1, 2, 4, 6, and 24 hours, respectively. The whole blood samples were collected in commercial EDTA2K anticoagulant tubes. The tubes were centrifuged at 6000 g for 3 minutes. The supernatant was separated to obtain plasma samples. The acetonitrile solution containing internal standard was added to precipitate protein. The mixture was centrifuged. The supernatant was take out. An equal volume of water was added. After mixing well, plasma concentration was quantitatively analyzed by LC-MS/MS analysis method, and the area under the drug-time curve was calculated. The femur and tibia on both sides of the mice were taken, and the muscle was removed. One end was cut off, placed in a centrifuge tube with the open end downwards. The tubes were centrifuged at 8000 rpm for 1 minute. The precipitate was bone marrow. The bone marrow was mixed with 50% methanol-water, grinded into a homogenate. The homogenate was added with an acetonitrile solution containing an internal standard to precipitate protein. The mixture was centrifuged to take the supernatant, added with an equal volume of water. After mixing well, the drug concentration in bone marrow was quantitatively analyzed by LC-MS/MS analysis method, and the area under the drug-time curve was calculated.
The calculation formula of bone marrow/plasma distribution coefficient is: Bone marrow/Plasma Ratio=bone marrow AUC0-last/plasma AUC0-last.

[2] = target: Recombinant human cathepsin C/DPP1; test: Inhibition effect test of DPP1 enzyme activity; format: biochemical; details: recombinant human cathepsin C/DPP1, Gly-Arg-AMC substrate 12.5 μM, 25° C. 60 minutes; read-out: IC50, inhibitory activity on DPP1 enzyme
Experimental: Experimental Example 1: Inhibition Effect Test of DPP1 Enzyme Activity
Recombinant human cathepsin C/DPP1 was purchased from R&D Systems;
Recombinant human cathepsin L (rhCathepsin L) was purchased from R&D Systems;
Gly-Arg-AMC (hydrochloride) was purchased from CAYMAN CHEMICAL COMPANY.
1× activation buffer: 5 mM DTT 0.01% (V/V) Triton X-100 (preparation for current use);
1× assay buffer: 50 mM NaCl 5 mM DTT 0.01% (V/V) Triton X-100 (preparation for current use);
1× activation buffer was used to dilute recombinant human cathepsin C/DPP1 enzyme and recombinant human cathepsin L (rhCathepsin L) enzyme to concentrations of 2 ng/μL and 0.4 ng/μL, respectively; equal volume of two working solutions of enzyme was taken, mixed well and incubated at 25° C. for 60 minutes;
the compounds to be tested were 5-fold diluted with a multi-channel pipette to the 8th concentration, i.e., diluted from 1 mM to 12.8 nM. Then 1× experimental buffer was used to dilute each compound to be tested by gradient into a 4% DMSO working solution. The working solution was added to corresponding wells for 5 μL/well, and duplicate experiment was set. The mixture was centrifuged at 1000 rpm for 1 minute;
5 μL/well of the enzyme mixture after incubation was taken and added to the white microwell plate. At this time, the amount of DPP1 enzyme in each well was 5 ng; 1× experimental buffer in 5 μL/well was added to the blank control well;
Gly-Arg-AMC (hydrochloride) was diluted to 25 μM with 1× assay buffer. The diluted mixture in 10 μL/well was added to a white microwell plate. The substrate concentration was 12.5 μM at this time, and the microplate was centrifuged in a centrifuge at 1000 rpm for 1 minute. […] After centrifugation, the microplate was covered with membrane and incubated at 25° C. for 60 minutes;
after incubation, fluorescence detection was performed using a multi-label analyzer with an excitation wavelength of 360 nm and an emission wavelength of 460 nm.
Using the equation (Sample−Min)/(Max−Min)×100% to convert the raw data into enzyme activity, the IC50 value might be obtained by curve fitting with four parameters (obtained by “log (inhibitor) vs. response—Variable slope” mode in GraphPad Prism).
Max: Contains recombinant human cathepsin C/DPP1, recombinant human cathepsin L (rhCathepsin L), and Gly-Arg-AMC (hydrochloride)
Min: No recombinant human cathepsin C/DPP1 and recombinant human cathepsin L (rhCathepsin L)

[3] = Pharmacokinetic evaluation in SD rats; format: in vivo; details: oral administration 10.0 mg/kg
Experimental: Experimental Example 4: Pharmacokinetic Evaluation of the Compound of the Present Disclosure in Rats
Experimental purpose: To test the pharmacokinetics of the compound in SD rats in vivo
Experimental materials: SD rats (male, 200 to 300 g, 6 to 10 weeks old, Beijing Vital River)
The pharmacokinetic characteristics of the compound in rodents after intravenous injection and oral administration were tested according to the standard protocol. In the experiment, the candidate compound was formulated into clear solutions, and a single intravenous injection and oral administration were respectively given to two rats. The vehicle of intravenous injection and oral administration is 5:95 DMSO and 10% hydroxypropyl β-cyclodextrin aqueous solution. The whole blood samples within 24 hours were collected in commercial EDTA2K anticoagulant tubes. The tubes were centrifuged at 6000 g for 3 minutes. The supernatant was separated to obtain plasma samples. 20 times the volume of acetonitrile solution containing internal standard was added to precipitate protein. The mixture was centrifuged. The supernatant was take out. An equal volume of water was added. Then the mixture was centrifuged to take the supernatant as the sample for sampling. Plasma concentration was quantitatively analyzed by LC-MS/MS analysis method, and pharmacokinetic parameters were calculated, such as apparent volume of distribution, clearance rate, half-life, area under the drug-time curve.

[4] = bone marrow, 5 mg/kg single oral administration
[5] = plasma, intravenous injection 2.0 mg/kg

Bone marrow/plasma distribution coefficient ([1]; 5 mg/kg oral, bone marrow AUC0-last/plasma AUC0-last): 4.5
Bone marrow Area under drug-time curve AUC0-last PO [1, 4]: 82362 nmol·h/kg
Bone marrow Peak concentration Cmax [1, 4]: 6113 nmol/kg
Plasma Area under drug-time curve AUC0-last PO ([1]; plasma, 5 mg/kg single oral administration): 18.362 µM·h
Cmax ([1]; plasma, 5 mg/kg single oral administration, read-out: Plasma Peak concentration Cmax): 2300 nM
IC50 [2]: 3.57 nM
Bioavailability F ([3]; intravenous injection 2.0 mg/kg): 39.1%
Clearance rate CL [3, 5]: 13.1 mL/min/kg
Volume of distribution at steady state Vdss [3, 5]: 1.9 L/kg
Cmax ([3]; plasma, intravenous injection 2.0 mg/kg, read-out: Peak concentration Cmax): 2240 nM
Area under drug-time curve AUC0-∞ PO ([3]; plasma): 11.864 µM·h
Half life T1/2 (PO) ([3]; plasma): 3.2 h
SMILES: Cn1ncc2ccc(-c3ccc(C[C@@H](C#N)NC(=O)[C@@H]4CNCCCO4)c(F)c3)cc21 [Compound 8]
